Assay results taken from publication PMC12517324, “Hyperagonism of a Vitamin D Receptor Agonist/Histone Deacetylase Inhibitor Hybrid Molecule” (Journal of Medicinal Chemistry, 2025).
Each block holds one molecule with its values, some of them ahead of it.

How the values were obtained:
[1] = tested on: VDRE in the mouse Spp1 gene, B16–F10 cells; experiment: ChIP-qPCR at the Spp1 VDRE; type: cell-based
From the text: To test this, we performed ChIP assays in B16–F10 cells, analyzing ligand-induced VDR and CBP (Creb binding protein) coactivator recruitment to the well-characterized consensus vitamin D receptor element (VDRE) in the mouse Spp1 gene (Figure A), which is superinduced by AC-340 (Figures C and A). CBP was chosen because it is widely expressed, and previous studies have shown that it is recruited to Cyp24a1 VDREs. […] In contrast, AC-340 recruited almost 3-fold more CBP under the same conditions (Figure C). CBP is a component of a large coactivator assembly recruited by VDR and required for chromatin remodeling due to its H3K27 acetyltransferase activity. − Since we previously observed a substantially higher level of H3K27 acetylation in AC-340-treated B16–F10 cells (Figure C,D), we intend to assess H3K27 acetylation at the Spp1 VDRE.
Cells were then fixed by adding formaldehyde directly to the culture medium to a final concentration of 1% and incubated for 15 min at RT. To quench the fixation, glycine was added to the medium at a final concentration of 125 mM. […] Quantification of immunoprecipitated materials was performed by qPCR and the enrichment of the target gene VDRE in each condition was normalized to the percentage input.

B16–F10 cells = experiment: RNaseq gene expression profiling; type: cell-based, mouse; conditions: 100 nM, 24 h;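 for logFC Cck: Hybrid compounds tested at 10 µM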;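 for logFC Cited1: Hybrid compounds tested at 10 µM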
Experimental: AC-340 superinduced CYP24A1 expression in all cell lines tested, and ZG-126 appeared to be a hyperagonist in SK-MEL-28 cells. […] AC-340 treatment produced 3 times more differentially expressed genes (DEGs) than AM-193, with ZG-126 producing an intermediate number (Figure A). […] The varying effects of each treatment on the numbers of regulated genes and the fold changes observed are reflected in plots of log-fold changes and volcano plots (Figure S3B).
A quality control was performed before sequencing in paired-end at 50 M reads by Illumina NovaSeq 6000 S4 PE100. After sequencing, the FASTQ files were sent to us and all downstream analysis were performed on Galaxy (Galaxy (usegalaxy.org)). First, trimmomatic tool was used to remove the adapters from the reads. Then, using the alignment tool, HISAT2, the reads were mapped to the mouse genome. In the next step, the counted reads were annotated and finally the list of differentially expressed genes (DEGs) for each treatment was obtained using the preinstalled R package called Limma.

[2] = tested on: CYP24A1 in SK-MEL-28 cells; experiment: CYP24A1 induction (RT-qPCR), extended dose–response in SK-MEL-28 cells; conditions: SK-MEL-28 cells, 1,25D up to 1 mM
[3] = molecular target: T1, zebrafish vitamin D receptor ligand binding domain (zVDR LBD, 156-453) (zebrafish, UniProt Q9PTN2 156-453); experiment: crystal structure; zVDR LBD (3-7 mg/mL) incubated with a 2-fold excess of ligand AC-340 and a 3-fold excess of the NCoA2 NR2 peptide; crystals at 293 K in Na2 tartrate 1.1 M, MgCl2 0.2 M, Hepes 0.1 M pH 7.5; one LBD complex per asymmetric unit; refined to 2.1 Å; conditions: both partners purified
T1 construct: Cloned into pET28b; the His tag was removed by thrombin, so residues of the vector may remain at the end; The crystal also holds the small molecule AC-340; also called zebrafish VDR; source: Escherichia coli BL21 DE3, purified (Ni Hitrap FF crude column, thrombin cleavage, size exclusion on HiLoad Superdex 75)
T1 sequence (looked up): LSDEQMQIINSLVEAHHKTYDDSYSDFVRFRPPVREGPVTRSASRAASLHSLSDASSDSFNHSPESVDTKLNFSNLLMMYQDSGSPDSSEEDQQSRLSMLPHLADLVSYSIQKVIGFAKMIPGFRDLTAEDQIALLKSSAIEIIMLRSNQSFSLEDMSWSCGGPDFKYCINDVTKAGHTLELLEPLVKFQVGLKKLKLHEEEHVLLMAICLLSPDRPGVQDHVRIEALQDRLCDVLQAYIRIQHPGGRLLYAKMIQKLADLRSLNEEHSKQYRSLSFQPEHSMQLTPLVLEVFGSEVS

Molecule: C=C1/C(=C\C=C2/CCC[C@]3(C)[C@@H]([C@H](C)CCCC(C)(C)O)CC[C@@H]23)C[C@@H](O)C[C@@H]1O [1,25D, 1α,25-dihydroxyvitamin D]
H3K27 acetylation at the Spp1 VDRE [1]: ineffective
logFC 4931406C07Rik (B16–F10 cells): 0.647
logFC Abcd2 (B16–F10 cells): 2.727
logFC Ace (B16–F10 cells): 2.102
logFC Adamts14 (B16–F10 cells): 1.691
logFC Adamtsl5 (B16–F10 cells): 0.7958
logFC Adssl1 (B16–F10 cells): 0.8651
logFC Aqp1 (B16–F10 cells): 3.095
logFC Ass1 (B16–F10 cells): 1.083
logFC Atoh8 (B16–F10 cells): 1.866
logFC C3 (B16–F10 cells): 2.444
logFC Cebpd (B16–F10 cells): 0.9202
logFC Cib2 (B16–F10 cells): 0.656
logFC Crabp2 (B16–F10 cells): 1.516
logFC Cyp24a1 (B16–F10 cells): 6.454
logFC Dagla (B16–F10 cells): 0.6621
logFC Ddo (B16–F10 cells): 1.132
logFC Dhrs3 (B16–F10 cells): 1.185
logFC Dmpk (B16–F10 cells): 1.6
logFC Efcab6 (B16–F10 cells): 1.404
logFC Efhd1 (B16–F10 cells): 3.1104
logFC Elfn1 (B16–F10 cells): 4.174
logFC Enpp1 (B16–F10 cells): 1.029
logFC Enpp3 (B16–F10 cells): 1.066
logFC Fam83f (B16–F10 cells): 1.009
logFC Fam178b (B16–F10 cells): 0.6417
logFC Gadd45a (B16–F10 cells): 0.6305
logFC Gdpd5 (B16–F10 cells): 0.8468
logFC Gm5424 (B16–F10 cells): 1.087
logFC Grb14 (B16–F10 cells): 4.512
logFC Hcn2 (B16–F10 cells): 2.951
logFC Hes6 (B16–F10 cells): 0.8133
logFC Hoga1 (B16–F10 cells): 0.7079
logFC Hoxb9 (B16–F10 cells): 0.9861
logFC Inmt (B16–F10 cells): 4.174
logFC Itgal (B16–F10 cells): 2.511
logFC Lgr6 (B16–F10 cells): 1.733
logFC Lrtm2 (B16–F10 cells): 3.553
logFC Mal (B16–F10 cells): 1.086
logFC Matn2 (B16–F10 cells): 1.519
logFC Mmp28 (B16–F10 cells): 2.973
logFC Myl9 (B16–F10 cells): 1.815
logFC Neu3 (B16–F10 cells): 0.8227
logFC Nptx1 (B16–F10 cells): 1.67
logFC Obscn (B16–F10 cells): 1.291
logFC Pdlim2 (B16–F10 cells): 0.7794
logFC Prag1 (B16–F10 cells): 0.7325
logFC Prelp (B16–F10 cells): 4.153
logFC Ptges (B16–F10 cells): 2.985
logFC Rab7b (B16–F10 cells): 1.864
logFC Rac2 (B16–F10 cells): 2.0813
logFC Rom1 (B16–F10 cells): 0.7288
logFC Rtn2 (B16–F10 cells): 0.9272
logFC Scamp1 (B16–F10 cells): 0.6536
logFC Serpinb9b (B16–F10 cells): 0.64
logFC Sh3bgr (B16–F10 cells): 1.253
logFC Shpk (B16–F10 cells): 0.8108
logFC Sox8 (B16–F10 cells): 3.592
logFC Spp1 (B16–F10 cells): 3.391
logFC Srcin1 (B16–F10 cells): 2.803
logFC Tgm2 (B16–F10 cells): 2.227
logFC Tnni1 (B16–F10 cells): 6.667
logFC Ttc39c (B16–F10 cells): 1.046
logFC Vdr (B16–F10 cells): 3.982
logFC Wnt10a (B16–F10 cells): 1.853
CYP24A1 induction on extending the dose range [2]: failed to enhance the induction of CYP24A1

Molecule: O=C(CCCCCCC(=O)Nc1ccccc1)NO [SAHA, suberoylanilide hydroxamic acid]
logFC 1500009L16Rik (B16–F10 cells): 0.7062
logFC Abca13 (B16–F10 cells): 0.7574
logFC Adam19 (B16–F10 cells): 0.5841
logFC Adamts7 (B16–F10 cells): 1.124
logFC Adamts14 (B16–F10 cells): 1.217
logFC Ank3 (B16–F10 cells): 0.7456
logFC Apbb1 (B16–F10 cells): 0.8022
logFC Atcay (B16–F10 cells): 1.535
logFC Atp1b2 (B16–F10 cells): 0.7178
logFC Atp2b4 (B16–F10 cells): 0.9179
logFC Bcan (B16–F10 cells): 0.5824
logFC Btn1a1 (B16–F10 cells): 2.439
logFC C1qtnf1 (B16–F10 cells): 1.607
logFC C1s1 (B16–F10 cells): 0.9877
logFC Card10 (B16–F10 cells): 0.6233
logFC Cck (B16–F10 cells): -0.6184
logFC Ccl2 (B16–F10 cells): 0.7906
logFC Chn1 (B16–F10 cells): 0.6625
logFC Cited1 (B16–F10 cells): -0.5815
logFC Clcnka (B16–F10 cells): 1.628
logFC Clu (B16–F10 cells): 0.9236
logFC Col1a1 (B16–F10 cells): 1.702
logFC Cpm (B16–F10 cells): 0.8993
logFC Crip1 (B16–F10 cells): 0.7228
logFC Crmp1 (B16–F10 cells): 0.7266
logFC Csdc2 (B16–F10 cells): 1.013
logFC Dock10 (B16–F10 cells): 0.6896
logFC Egfl7 (B16–F10 cells): 0.5994
logFC Elovl4 (B16–F10 cells): 0.6542
logFC Enpp1 (B16–F10 cells): 0.7446
logFC Enpp3 (B16–F10 cells): 0.9035
logFC Entpd2 (B16–F10 cells): 0.9577
logFC Fam131b (B16–F10 cells): 1.153
logFC Fbxo41 (B16–F10 cells): 0.8175
logFC Fstl1 (B16–F10 cells): 1.348
logFC Gli1 (B16–F10 cells): 1.843
logFC Glipr2 (B16–F10 cells): 0.8149
logFC Gpr162 (B16–F10 cells): 0.6749
logFC Gsdmc (B16–F10 cells): 0.6713
logFC Gstt1 (B16–F10 cells): 1.731
logFC Hoxb9 (B16–F10 cells): 0.9565
logFC Itga8 (B16–F10 cells): 0.6392
logFC Jam2 (B16–F10 cells): 0.5927
logFC Kcnh2 (B16–F10 cells): 1.1509
logFC Kcnt1 (B16–F10 cells): 2.101
logFC Kdelr3 (B16–F10 cells): 0.5979
logFC Klrg2 (B16–F10 cells): 0.6093
logFC Loxl4 (B16–F10 cells): 0.8565
logFC Lrp11 (B16–F10 cells): 0.65
logFC Lrrc75b (B16–F10 cells): 1.006
logFC Ltbp4 (B16–F10 cells): 1.299
logFC Map2 (B16–F10 cells): 0.5974
logFC Mgat3 (B16–F10 cells): 0.5859
logFC Mmp11 (B16–F10 cells): 0.7246
logFC Mmp17 (B16–F10 cells): 1.252
logFC Mogat2 (B16–F10 cells): 0.5856
logFC Myl9 (B16–F10 cells): 0.6886
logFC Nacad (B16–F10 cells): 0.9826
logFC Ndrg4 (B16–F10 cells): 0.8254
logFC Neurl1a (B16–F10 cells): 0.5887
logFC Notch1 (B16–F10 cells): 0.8121
logFC Palld (B16–F10 cells): 0.5874
logFC Pcdh17 (B16–F10 cells): 0.6033
logFC Pdgfra (B16–F10 cells): 1.16
logFC Plat (B16–F10 cells): 0.5899
logFC Plppr2 (B16–F10 cells): 0.641
logFC Plppr3 (B16–F10 cells): 0.7184
logFC Pmm1 (B16–F10 cells): 0.5873
logFC Ppm1j (B16–F10 cells): 0.9349
logFC Prelp (B16–F10 cells): 0.6949
logFC Prnd (B16–F10 cells): 0.9638
logFC Prph (B16–F10 cells): 1.113
logFC Ptgs1 (B16–F10 cells): 0.7769
logFC Rab7b (B16–F10 cells): 1.164
logFC Rasa4 (B16–F10 cells): 1.171
logFC Rcn3 (B16–F10 cells): 0.5908
logFC Reep6 (B16–F10 cells): 0.6217
logFC Rflnb (B16–F10 cells): 0.6241
logFC Rhpn2 (B16–F10 cells): 0.7266
logFC Rtn2 (B16–F10 cells): 0.735
logFC Rtn4rl2 (B16–F10 cells): 1.53
logFC Rundc3a (B16–F10 cells): 0.8211
logFC S100a6 (B16–F10 cells): 0.8372
logFC Scube3 (B16–F10 cells): 0.7375
logFC Septin4 (B16–F10 cells): 0.8607
logFC Septin5 (B16–F10 cells): 1.1153
logFC Spn (B16–F10 cells): 1.292
logFC Sptbn2 (B16–F10 cells): -0.6313
logFC Stum (B16–F10 cells): 0.9146
logFC Syt3 (B16–F10 cells): 1.3692
logFC Syt7 (B16–F10 cells): 0.603
logFC Tagln2 (B16–F10 cells): 0.7428
logFC Tgm2 (B16–F10 cells): 1.1319
logFC Thbs3 (B16–F10 cells): 0.7215
logFC Tlr1 (B16–F10 cells): 0.6918
logFC Trim47 (B16–F10 cells): 0.6166
logFC Trnp1 (B16–F10 cells): 0.6142
logFC Uchl1 (B16–F10 cells): 0.7608
logFC Vash1 (B16–F10 cells): 0.6486
logFC Vdr (B16–F10 cells): 1.045
logFC Wfdc1 (B16–F10 cells): 0.7568
logFC Wnt6 (B16–F10 cells): 1.4553

binding result [3]: binds
Molecule: KHKILHRLLQDSS (also called NCoA2 peptide) [coactivator NCoA2 NR2 peptide (human nuclear receptor coactivator 2, second NR box)]
